Laboratory results taken from patent US20250228832A1, “METHODS FOR TREATING DISORDERS AMELIORATED BY MUSCARINIC RECEPTOR ACTIVATION” (KARUNA THERAPEUTICS, INC., priority 2022, published 2025).
Like-named read-outs stand apart in the source and are kept apart here.

Columns and labels:
human M3 receptor = biological target: T1, human M3 receptor (Homo sapiens, UniProt P20309); assay: HTRF IP-One curve shift assay, M3; type: cell-based
T1 construct: expressed in transfected cells
Experimental: (§1) HTRF IP-One assays were performed using frozen cell aliquots prepared from CHO-K1 cell lines stably expressing human M1, M3, or M5 receptors. Cells were frozen following typical cell freezing protocols. […] Dissociated cells were quenched in full media and collected by centrifugation at 290×g for 5 min. […] 1 mL aliquots of cells were dispensed into cryovial tubes and frozen in a controlled rate cryo-freezer container at −80° C. Cells were stored at −80° C. (or in liquid nitrogen if stored for at least six months) until the day of the assay.
(§2) On the day before the assay, frozen cells were rapidly thawed in a 37° C. water bath, brought up in 20 mL of full media, and collected via centrifugation at 290×g for 5 min. […] Next, […] of cells (10,000 cells/well) were dispensed into 384-well coming plates in triplicate. Cells were incubated overnight in a 37° C., 5% CO2 cell incubator.
(§3) Then, 2 μL of test compounds were added to the cells and incubated for 10 min at 37° C. in a 5% CO2 cell incubator. Next, 2 μL of diluted agonists serially diluted in assay buffer at 7× final assay concentration was added to assay plates. Finally, assay plates were incubated for two hours at 37° C. in a 5% CO2 cell incubator.
(§4) Six μL of IP-1 detection reagents (IP-One Gq HTRF kit, Cisbio Cat #62IPAPEJ) were dispensed to the cells. First, the plates were incubated for two hours at room temperature (IP-One detection reagents were made according to Cisbio protocol). Then, plates were read on an Envision plate reader following the Cisbio guidelines.
(§5) Raw data for all assays was transmitted directly from plate readers into the Beacon database for processing. All assay plates contained positive and negative control wells for data normalization and scaling. […] All control wells contained DMSO at a final assay concentration that matched the test compound wells.
(§6) Counts from the standard curve wells were used to generate a sigmoidal standard curve, which was used to transform the raw counts from each well on the plate (scaling control wells and compound wells) into a pmol/well IP1 value.

human M1 receptor = biological target: T2, human M1 receptor (Homo sapiens, UniProt P11229); assay: HTRF IP-One curve shift assay, M1; type: cell-based
T2 construct: expressed in transfected cells
T2 sequence (P11229 1-460): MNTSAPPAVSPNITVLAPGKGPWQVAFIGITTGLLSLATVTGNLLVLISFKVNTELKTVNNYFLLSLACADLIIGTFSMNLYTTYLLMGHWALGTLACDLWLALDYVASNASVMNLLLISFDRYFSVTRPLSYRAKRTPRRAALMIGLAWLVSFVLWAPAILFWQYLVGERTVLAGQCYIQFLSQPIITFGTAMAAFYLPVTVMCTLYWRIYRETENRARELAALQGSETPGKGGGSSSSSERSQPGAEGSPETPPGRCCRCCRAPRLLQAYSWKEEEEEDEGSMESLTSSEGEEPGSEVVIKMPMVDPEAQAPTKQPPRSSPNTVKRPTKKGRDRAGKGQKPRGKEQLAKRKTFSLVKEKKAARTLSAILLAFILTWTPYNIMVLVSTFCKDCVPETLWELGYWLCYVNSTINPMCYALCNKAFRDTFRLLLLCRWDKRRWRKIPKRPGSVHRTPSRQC
Experimental: as §1, §2, §3, §4, §5, §6

[1] = Emraclidine concentration 41.2 nM, read-out: Emax
[2] = Emraclidine concentration 123 nM, read-out: Emax
[3] = Emraclidine concentration 370 nM
[4] = Emraclidine concentration 1110 nM, read-out: Emax
[5] = Emraclidine concentration 3330 nM, read-out: Emax
[6] = MK-4710 concentration 41.2 nM, read-out: Emax
[7] = MK-4710 concentration 123 nM, read-out: Emax
[8] = MK-4710 concentration 1110 nM, read-out: Emax
[9] = MK-4710 concentration 3330 nM, read-out: Emax

T1 sequence (P20309 whole entry): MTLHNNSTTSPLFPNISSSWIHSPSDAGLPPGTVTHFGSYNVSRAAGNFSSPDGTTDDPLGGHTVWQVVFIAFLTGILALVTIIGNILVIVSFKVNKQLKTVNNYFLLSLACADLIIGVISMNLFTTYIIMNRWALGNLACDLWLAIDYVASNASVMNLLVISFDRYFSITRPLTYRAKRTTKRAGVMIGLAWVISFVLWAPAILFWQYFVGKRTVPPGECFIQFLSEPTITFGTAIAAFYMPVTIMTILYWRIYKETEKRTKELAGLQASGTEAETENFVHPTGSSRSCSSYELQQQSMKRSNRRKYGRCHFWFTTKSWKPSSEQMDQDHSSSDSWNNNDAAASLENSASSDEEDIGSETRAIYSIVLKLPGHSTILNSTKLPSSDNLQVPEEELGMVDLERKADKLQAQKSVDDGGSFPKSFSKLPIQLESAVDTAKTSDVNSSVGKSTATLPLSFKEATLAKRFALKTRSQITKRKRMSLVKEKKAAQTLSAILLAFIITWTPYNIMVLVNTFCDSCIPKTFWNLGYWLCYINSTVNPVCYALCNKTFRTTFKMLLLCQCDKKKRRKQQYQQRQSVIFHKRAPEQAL

Question: For `CC1OC2(CS1)CN1CCC2CC1` (centres unmarked) [cevimeline, Cevimeline, reference compound], which EC50 (human M3 receptor; Emraclidine concentration 0 nM) is on record?
Answer: Its EC50 is 3.27 µM.

Question: What about the Emax (human M3 receptor; Emraclidine concentration 0 nM) of the same compound?
Answer: Its Emax is 97.9%.

Question: What about the Emax (human M3 receptor; [1]) of the same compound?
Answer: Its Emax is 96.7%.

Question: What about the Emax (human M3 receptor; [2]) of the same compound?
Answer: Its Emax is 83.8%.

Question: What about the Emax at […] (human M3 receptor; [3]) of the same compound?
Answer: Its Emax at […] is 87.8%.

Question: And the Emax (human M3 receptor; [4])?
Answer: The Emax was 125%.

Question: What about the Emax (human M3 receptor; [5]) of the same compound?
Answer: Its Emax is 83.9%.

Question: What about the Emax at […] (human M3 receptor; Emraclidine concentration […]) of the same compound?
Answer: Its Emax at […] is 77.3%.

Question: What about the “α (cooperativity, affinity shift)” value (human M3 receptor; M4 PAM Emraclidine) of the same compound?
Answer: The value was 1.0.

Question: What about the “β (cooperativity, efficacy shift)” value (human M3 receptor; M4 PAM Emraclidine) of the same compound?
Answer: Its value is 1.1.

Question: What about the “τ (agonist pharmacology)” value (human M3 receptor; M4 PAM Emraclidine) of the same compound?
Answer: Its value is 0.1.

Question: What about the “α (cooperativity, affinity shift)” value (human M3 receptor; M4 PAM MK-4710) of the same compound?
Answer: Its value is 2.1.

Question: And the “β (cooperativity, efficacy shift)” value (human M3 receptor; M4 PAM MK-4710)?
Answer: The value was 0.6.

Question: And the “τ (agonist pharmacology)” value (human M3 receptor; M4 PAM MK-4710)?
Answer: The value was 0.0.

Question: What about the EC50 (human M3 receptor; MK-4710 concentration 0 nM) of the same compound?
Answer: The EC50 was 6.36 µM.

Question: And the Emax (human M3 receptor; MK-4710 concentration 0 nM)?
Answer: Its Emax is 118.7%.

Question: What about the EC50 (human M3 receptor; MK-4710 concentration 41.2 nM) of the same compound?
Answer: Its EC50 is 7.6 µM.

Question: What about the Emax (human M3 receptor; [6]) of the same compound?
Answer: The Emax was 151%.

Question: What about the EC50 (human M3 receptor; MK-4710 concentration 123 nM) of the same compound?
Answer: Its EC50 is 4.88 µM.

Question: What about the Emax (human M3 receptor; [7]) of the same compound?
Answer: Its Emax is 137%.

Question: What about the EC50 (human M3 receptor; MK-4710 concentration 370 nM) of the same compound?
Answer: Its EC50 is 9.67 µM.

Question: What about the Emax at […] (human M3 receptor; MK-4710 concentration 370 nM) of the same compound?
Answer: The Emax at […] was 163%.

Question: What about the EC50 (human M3 receptor; MK-4710 concentration 1110 nM) of the same compound?
Answer: Its EC50 is 11.2 µM.

Question: And the Emax (human M3 receptor; [8])?
Answer: Its Emax is 150%.

Question: What about the EC50 (human M3 receptor; MK-4710 concentration 3330 nM) of the same compound?
Answer: The EC50 was 4.11 µM.

Question: And the Emax (human M3 receptor; [9])?
Answer: The Emax was 93.1%.

Question: What about the EC50 (human M3 receptor; MK-4710 concentration […]) of the same compound?
Answer: Its EC50 is 11.5 µM.

Question: And the Emax at […] (human M3 receptor; MK-4710 concentration […])?
Answer: Its Emax at […] is 159%.

Question: What about the EC50 (human M1 receptor; Emraclidine concentration 0 nM) of the same compound?
Answer: The EC50 was 1.19 µM.

Question: And the Emax (human M1 receptor; Emraclidine concentration 0 nM)?
Answer: Its Emax is 73.6%.

Question: What about the Emax (human M1 receptor; [1]) of the same compound?
Answer: The Emax was 81.4%.

Question: What about the Emax (human M1 receptor; [2]) of the same compound?
Answer: Its Emax is 90.4%.

Question: What about the Emax at […] (human M1 receptor; [3]) of the same compound?
Answer: Its Emax at […] is 95.1%.

Question: What about the Emax (human M1 receptor; [4]) of the same compound?
Answer: Its Emax is 100%.

Question: What about the Emax (human M1 receptor; [5]) of the same compound?
Answer: Its Emax is 103%.

Question: What about the Emax at […] (human M1 receptor; Emraclidine concentration […]) of the same compound?
Answer: The Emax at […] was 73.2%.

Question: And the “α (cooperativity, affinity shift)” value (human M1 receptor; M4 PAM Emraclidine)?
Answer: Its value is 1.0.

Question: What about the “β (cooperativity, efficacy shift)” value (human M1 receptor; M4 PAM Emraclidine) of the same compound?
Answer: Its value is 1.2.

Question: What about the “τ (agonist pharmacology)” value (human M1 receptor; M4 PAM Emraclidine) of the same compound?
Answer: The value was 0.0.

Question: What about the “α (cooperativity, affinity shift)” value (human M1 receptor; M4 PAM MK-4710) of the same compound?
Answer: Its value is 3.0.

Question: And the “β (cooperativity, efficacy shift)” value (human M1 receptor; M4 PAM MK-4710)?
Answer: The value was 0.5.

Question: And the “τ (agonist pharmacology)” value (human M1 receptor; M4 PAM MK-4710)?
Answer: Its value is 0.0.

Question: And the EC50 (human M1 receptor; MK-4710 concentration 0 nM)?
Answer: Its EC50 is 1.75 µM.

Question: And the Emax (human M1 receptor; MK-4710 concentration 0 nM)?
Answer: The Emax was 86.1%.

Question: What about the Emax (human M1 receptor; [6]) of the same compound?
Answer: The Emax was 102%.

Question: And the Emax (human M1 receptor; [7])?
Answer: Its Emax is 97.1%.

Question: And the Emax at […] (human M1 receptor; MK-4710 concentration 370 nM)?
Answer: Its Emax at […] is 92.3%.

Question: And the Emax (human M1 receptor; [8])?
Answer: The Emax was 83.6%.

Question: And the Emax (human M1 receptor; [9])?
Answer: The Emax was 69.9%.

Question: What about the Emax at […] (human M1 receptor; MK-4710 concentration […]) of the same compound?
Answer: The Emax at […] was 88.8%.

Question: How did the EC50 (human M3 receptor; Emraclidine concentration 0 nM) turn out when `CCCCCCOc1nsnc1C1=CCCN(C)C1` [xanomeline, reference compound] was run?
Answer: Its EC50 is 0.155 µM.

Question: And the Emax (human M3 receptor; Emraclidine concentration 0 nM)?
Answer: The Emax was 77.3%.

Question: What about the Emax (human M3 receptor; [1]) of the same compound?
Answer: Its Emax is 81.9%.

Question: What about the Emax (human M3 receptor; [2]) of the same compound?
Answer: The Emax was 85.7%.

Question: What about the Emax at […] (human M3 receptor; [3]) of the same compound?
Answer: The Emax at […] was 91.6%.

Question: What about the Emax (human M3 receptor; [4]) of the same compound?
Answer: The Emax was 89.1%.

Question: And the Emax (human M3 receptor; [5])?
Answer: The Emax was 80.3%.

Question: What about the Emax at […] (human M3 receptor; Emraclidine concentration […]) of the same compound?
Answer: Its Emax at […] is 74.5%.

Question: What about the “τ (agonist pharmacology)” value (human M3 receptor; M4 PAM Emraclidine) of the same compound?
Answer: The value was 0.1.

Question: And the “τ (agonist pharmacology)” value (human M3 receptor; M4 PAM MK-4710)?
Answer: Its value is 0.1.

Question: And the EC50 (human M3 receptor; MK-4710 concentration 0 nM)?
Answer: The EC50 was 0.147 µM.

Question: And the Emax (human M3 receptor; MK-4710 concentration 0 nM)?
Answer: Its Emax is 84.2%.

Question: What about the Emax (human M3 receptor; [6]) of the same compound?
Answer: The Emax was 94.3%.

Question: And the Emax (human M3 receptor; [7])?
Answer: The Emax was 90.3%.

Question: What about the Emax at […] (human M3 receptor; MK-4710 concentration 370 nM) of the same compound?
Answer: Its Emax at […] is 88.9%.

Question: What about the Emax (human M3 receptor; [8]) of the same compound?
Answer: The Emax was 81%.

Question: And the Emax (human M3 receptor; [9])?
Answer: Its Emax is 81.8%.

Question: What about the Emax at […] (human M3 receptor; MK-4710 concentration […]) of the same compound?
Answer: Its Emax at […] is 81.5%.
